From US20140329766A1, “Prophylactic Compositions for Management of Microbial Infections in Patients with Brain Injury” (UTI LIMITED PARTNERSHIP, priority 2011, published 2014) come the findings set out here.

For assay [1], the system named is iNKT cells. The assay can be described thus: In vitro noradrenalin activation of isolated iNKT cells. Type of assay: cell-based, mice. As to the method: After gentle agitation at 37° C. for 30 min, the concentrate was passed through a 40-μm nylon filter and washed twice with ice-cold PBS (pH 7.4) and centrifuged at 400×g for 10 min. Lymphocytes were purified on a 44%/70% Percoll gradient and were negatively selected with anti-Gr-1 (RB6-8C5; eBioscience), anti-F4/80 (BM8; eBioscience), anti-CD19 (1D3; eBioscience), and anti-CD8a (53-6.7; eBioscience) microbeads and MiniMACS column (Miltenyi Biotech) to remove neutrophils, macrophages, B cells, and CD8+ cells, respectively. A pure iNKT cell population consisting of TCRf3+ and GFP+ cells were sorted. Purity of isolated iNKT cells was >95%. iNKT cells were seeded at 5×10^5 cells into plasma-coated 6 cm clear flat glass bottom dishes and allowed to settle in DMEM containing 10% FCS for 1 h. To examine noradrenalin activation of iNKT cells in vitro, iNKT cells were either pretreated with 400 μM propranolol and then treated with 200 μM noradrenalin or the iNKT cells were subjected to 200 μM noradrenalin alone. The behavior of iNKT cells was visualized and recorded with FluoView FV1000 confocal fluorescence microscope (Olympus). The recorded images were randomized and analyzed by three blinded investigators.

Assay [2] in a line: Brain infarct size after MCAO. It counts as in vivo, mice. Particulars: systemic propranolol or 6-OHDA (FIG. 36).
In assay [3] the test system is intracellular IFNγ and IL-10 production. The assay can be described thus: Intracellular cytokine analysis by flow cytometry. Particulars: post-ischemic wild-type mice treated with propranolol (FIG. 48). It counts as in vivo.
Protocol: For intracellular cytokine analysis, liver single cell suspensions from sham-operated and post-ischemic Cxcr6^gfp/+ mice were stained with PerCP-conjugated anti-CD69, washed with cold FWB, resuspended in Cytofix/Cytoperm (BD Bioscience) for 30 min on ice. Samples were washed in Perm/Wash (BD Bioscience) and then stained with Alexa Fluor 450-conjugated anti-IFNγ (XMG1.2, eBioscience) and PE-conjugated anti-IL-4 (11B11, BD Pharmingen) or PE-conjugated anti-IL-10 (JESS-16E3, eBioscience).
The test system of another assay is post-stroke infections. As to the kind of experiment: Bacteriological analysis (CFU) of blood, lungs, liver and spleen after MCAO. Type of assay: in vivo, mice. Particulars: for bacterial infections at 24 h after MCAO: wild-type mice receiving propranolol or 6-OHDA (FIGS. 44A-44D). As to the method:
Mice underwent the mid-cerebral artery occlusion (MCAO) model of cerebral ischemia-reperfusion injury as previously described (Connolly, Jr. et al., 1996; Wong et al., 2008). Male mice of 8-12 weeks old were anesthetized by intraperitoneal injection of a mixture of 10 mg/kg xylazine hydrochloride (MTC Pharmaceuticals, Cambridge, ON) and 200 mg/kg ketamine hydrochloride (Rogar/STB, London, ON). Body temperature was maintained at 37° C. using a heating pad and temperature regulator with rectal probe. Mice were randomly divided into 2 groups: (i) sham-operated, and (ii) MCAO-operated. All surgical instruments were sterilized before the surgery. Before any incision, the area was swabbed with ethanol. To induce MCAO, a 10-mm incision was made on the right-hand side of the neck. Then, the common carotid artery, external carotid artery, and internal carotid artery were dissected free. The external carotid artery was further dissected distally, then coagulated and cut to serve as a stump. After applying temporary clamps at the common carotid artery and internal carotid artery, a monofilament with a silicon coating diameter of 0.21-0.23 mm (Doccol Corporation, Redlands, Calif., USA) was inserted into the stump of the external carotid artery. The monofilament then advanced a defined distance (12 mm) so that the distal end of the monofilament came to rest across the origin of the MCA. The stump of external carotid artery was tied off. The wound on the neck of the mouse was sutured and the mouse was then transferred onto a heat pad to maintain its body temperature at 37° C. After 30 mins of occlusion, the monofilament was withdrawn to allow reperfusion to occur. The animal then recovered from the anaesthesia. Rehydration of the mice was performed every 4 h with a subcutaneous injection of electrolytes and glucose. Food pellets softened with water were placed in the cage after surgery as the mice recovered, and access to water was provided. Sham-operated animals were subjected to the initial anaesthetic and neck incision only. The animals were then allowed to recover from anaesthetic. All animals were put onto a 37° C. heat pad, post-surgery, to recover from anaesthesia until euthanized.
The anaesthetized mice from Example 1 were washed with 70% ethanol under sterile conditions. Blood was collected by cardiac puncture. The lungs, liver and spleen were removed after thoracotomy and homogenized. For determination of colony forming units (CFU), 10 μl of tissue homogenate or blood was serially diluted, plated onto brain heart infusion (BHI) agar plates supplemented with 5% sheep blood (Daylnn Biologicals, Alberta, Canada), incubated at 37° C. for 18 h, and bacterial colonies were counted.
The anaesthetized mice from Example 7 were washed with 70% ethanol under sterile conditions. Blood was collected by cardiac puncture. The lungs, liver and spleen were removed after thoracotomy and homogenized. For determination of colony forming units (CFU), 10 μl of tissue homogenate or blood was serially diluted, plated onto brain heart infusion (BHI) agar plates supplemented with 5% sheep blood (Daylnn Biologicals, Alberta, Canada), incubated at 37° C. for 18 h, and bacterial colonies were counted.

The next assay has as its system hepatic iNKT cells. As to the kind of experiment: Spinning disk confocal intravital microscopy of the liver: crawling behaviour of GFP+ (iNKT) cells. Type of assay: in vivo, mice. Particulars: post-ischemic Cxcr6gfp/+ mice 24 h after MCAO; for iNKT cell phenotype (cessation of crawling) induced by MCAO: propranolol 30 mg/kg at 4 and 8 h after MCAO, 6-OHDA 250 mg/kg i.p. 3 days prior (FIGS. 32-34). As for the experimental part: Murine liver intravital microscopy was performed as taught by Wong et al. (1997, A minimal role for selectins in the recruitment of leukocytes into the inflamed liver microvasculature. J. Clin. Invest. 99: 2782). Briefly, the tail vein of the anesthetized mice was cannulated to administer fluorescently labeled antibodies and/or additional anesthetic as required. Body temperature was maintained at 37° C. using an infrared heat lamp. Mice were placed in a right lateral position on an adjustable microscope stage. A lateral abdominal incision along the costal margin to the midaxillary line was made to exteriorize the liver, and all exposed tissues were moistened with saline-soaked gauze to prevent dehydration.
Cells were tracked using ImageJ software version 1.45 (NIH at http://rsb.info.nih.gov/ij/). Time-lapse videos exported from Volocity were imported as .mov file, and then converted to 8-bit grayscale. Fluorescent cells were adjusted using threshold control, and noise particles less than 2.0 pixels were removed by filter. Movement of cells was measured using manual tracking, and was calculated for each track using ImageJ output spreadsheets. The cell velocity was expressed in distance (μm) per time (min). 30-40 tracks from 10 mins videos of each animal in each experimental group were analyzed.
Excised livers were prepared for in vivo microscopic observation. Briefly, the liver was placed on the pedestal of an inverted microscope and the liver surface was then covered with a small piece of saline-soaked KimWipe to hold the organ in position. The liver microvasculature was visualized using a spinning-disk confocal microscopy and images were acquired with an Olympus IX81 inverted microscope using a ×10/0.40 UplanFL N objective. The microscope was equipped with a confocal light path (WaveFx, Quorum, Guelph, ON, CA) based on a modified Yokogawa CSU-10 head (Yokogawa Electric Corporation, Tokyo, Japan). Cxcr6^gfp/+ mice were used to visualize hepatic iNKT cells. Laser excitation wavelengths (Cobolt, Stockholm, Sweden) were used in rapid succession and visualized with the appropriate long-pass filters (Semrock, Rochester, N.Y.). Typical exposure time for each excitation wavelength was 300 milli-seconds. A 512×512 pixel back-thinned electron-multiplying charge-coupled device camera (C9100-13, Hamamatsu, Bridgewater, N.J.) was used for fluorescence detection. Volocity Acquisition software (Improvision) was used to drive the confocal microscope. […] Behaviors of iNKT cells in the hepatic microvasculature were assessed.
Wildtype mice underwent the MCAO procedure as previously described in Example 1. […] The crawling behaviours of crawling GFP+ cells in livers from sham-operated control mice and post-ischemic mice were observed and quantified using the methods disclosed in Example 2.

Assay [4] relates to iNKT cells. The assay can be described thus: Localized noradrenalin superfusion on the liver of Cxcr6gfp/+ mice. It counts as in vivo. As for the experimental part: Alexa Fluor 647-conjugated rat anti-mouse PECAM-1 (clone 390; 1 μl) purchased from eBioscience (San Diego, Calif., USA) was mixed with the noradrenalin (5 μg; Sigma) to enable visualization of the epicentre of noradrenalin superfusion. Using intravital spinning-disk confocal microscopy, the behavior of iNKT cells was visualized and tracked in the epicentre of, and distant from the localized noradrenalin in the livers of Cxcr6^gfp/+ mice.

The format of assay [5] is in vivo. Particulars: post-ischemic Cxcr6gfp/+ mice (FIG. 37).
Protocol: Body temperature was maintained at 37° C. using a heating pad and temperature regulator with rectal probe. Mice were randomly divided into 2 groups: (i) sham-operated, and (ii) MCAO-operated. All surgical instruments were sterilized before the surgery. Before any incision, the area was swabbed with ethanol. To induce MCAO, a 10-mm incision was made on the right-hand side of the neck. Then, the common carotid artery, external carotid artery, and internal carotid artery were dissected free. The external carotid artery was further dissected distally, then coagulated and cut to serve as a stump. After applying temporary clamps at the common carotid artery and internal carotid artery, a monofilament with a silicon coating diameter of 0.21-0.23 mm (Doccol Corporation, Redlands, Calif., USA) was inserted into the stump of the external carotid artery. The monofilament then advanced a defined distance (12 mm) so that the distal end of the monofilament came to rest across the origin of the MCA. The stump of external carotid artery was tied off. The wound on the neck of the mouse was sutured and the mouse was then transferred onto a heat pad to maintain its body temperature at 37° C. After 30 mins of occlusion, the monofilament was withdrawn to allow reperfusion to occur. The animal then recovered from the anaesthesia. […]
The mark [6] stands for this setting: 5 μg, liver of Cxcr6gfp/+ mice (FIGS. 38-40).

As for `CC(C)NCC(O)COc1cccc2ccccc12` (stereo not shown) [propranolol], in the assay on iNKT cells [1] (pretreatment 400 μM propranolol, then 200 μM noradrenalin (FIG. 42)), the “noradrenaline-induced behavioral change of iNKT cells in vitro” value is recorded as “inhibited”. Further, the “infarct size in post-ischemic mice” value in assay [2] is “did not alter”. The “intracellular IL-10 versus IFN-γ production” value in assay [3] is recorded as “reversed the preference for intracellular IL-10 production back to an intracellular IFN-γ dominant production”. The “protection from infection (bacterial loads in peripheral blood and lungs)” value in the assay on post-stroke infections (post-ischemic Cd1d-/- mice (FIG. 46)) is “no protection”. Moreover, in the assay on post-stroke infections, the “bacterial infections at 24 h after MCAO” value is reported as “significantly reduced”. For the same molecule, in the assay with hepatic iNKT cells, the “iNKT cell phenotype (cessation of crawling) induced by MCAO” value is on record as “reversed”.

For the molecule `NC[C@H](O)c1ccc(O)c(O)c1` [noradrenaline], the “iNKT cell morphology in vitro” value in the assay on iNKT cells [1] (200 μM noradrenalin alone (FIG. 41)) was “developed a pseudopod-protruding phenotype”. In addition, the “crawling behavior of iNKT cells in an area of liver distant from the superfusion” value in the assay with iNKT cells [4] (5 μg (FIGS. 38-40)) is given as “did not alter”. Further, in the assay on iNKT cells [4] (setting [6]), the “crawling iNKT cells in the epicenter of noradrenaline administration” value is listed as “Significantly fewer iNKT cells crawled” and the “pirouetting iNKT cells in the epicenter of noradrenaline administration” value is “more cells adopted a pirouetting phenotype”.

For the molecule apyrase, the “iNKT cell arrest in response to MCAO” value in the assay on hepatic iNKT cells (treatment just prior to MCAO (FIGS. 29, 30)) is given as “no effect”.

As to `NCCc1cc(O)c(O)cc1O` [Formula 6-OHDA, 6-hydroxydopamine], in assay [2], the “infarct size in post-ischemic mice” value is “did not alter”. The “Mortality at 24 h of reperfusion” value in assay [5] was 50%. Further, the “bacterial infections at 24 h after MCAO” value with post-stroke infections is recorded as “significantly reduced”. Also, the “iNKT cell phenotype (cessation of crawling) induced by MCAO” value in the assay with hepatic iNKT cells is reported as “completely inhibited”.

B1: recombinant IL-10: Recombinant IL-10 (Cedarlane), a TH2-type cytokine (protein, UniProt P18893 19-178, looked up)
Interleukin-10: SRGQYSREDNNCTHFPVGQSHMLLELRTAFSQVKTFFQTKDQLDNILLTDSLMQDFKGYLGCQALSEMIQFYLVEVMPQAEKHGPEIKEHLNSLGEKLKTLRMRLRRCHRFLPCENKSKAVEQVKSDFNKLQDQGVYKAMNEFDIFINCIEAYMMIKMKS
B1: the “stroke-induced lung infections (bacterial load in the lungs)” value in the assay on post-stroke infections (wild-type mice pretreated i.v. 1 h prior to MCAO, 1 μg/mouse (FIG. 22)) is recorded as “increased”.
